Earlier results on 13 compounds are cited in patent US8178322B2, “Method for producing an L-amino acid or a nucleic acid” (Ajinomoto Co., Inc., priority 2007, dated 2012).

Molecules are shown by their SMILES. Values after ≈ are worked out from the molar mass of the structure shown. Read-outs that look alike come from different tables or passages of the source.

Assay in data set [1]: not given
This is another data set of the same source.

In the case of `N[C@@H](CS)C(=O)O` [L-cysteine], the “Solubility (20° C.)” value is reported as 160 g/L (≈ 1320 mM).
On to `N[C@@H](CSSC[C@H](N)C(=O)O)C(=O)O` [L-cystine], for which the “Solubility (20° C.)” value is 0.09 g/L (≈ 0.375 mM).
With `NC(=O)CC[C@H](N)C(=O)O` [L-glutamine], the “Solubility (20° C.)” value was 37.3 g/L (≈ 255 mM) and the “Solubility (40° C.)” value is given as 66 g/L (≈ 452 mM).
In the case of `N[C@@H](Cc1c[nH]cn1)C(=O)O` [L-histidine], the “Solubility (20° C.)” value was 38 g/L (≈ 245 mM) and the “Solubility (40° C.)” value is 58 g/L (≈ 374 mM).
Turning to `CC[C@H](C)[C@H](N)C(=O)O` [L-isoleucine], the “Solubility (40° C.)” value is recorded as 44 g/L (≈ 335 mM).
Consider `CC(C)C[C@H](N)C(=O)O` [L-leucine], for which the “Solubility (20° C.)” value is 23.8 g/L (≈ 181 mM) and the “Solubility (40° C.)” value was 26 g/L (≈ 198 mM).
In the case of `N[C@@H](Cc1ccccc1)C(=O)O` [L-phenylalanine], the “Solubility (20° C.)” value was 27.4 g/L (≈ 166 mM) and the “Solubility (40° C.)” value is listed as 38 g/L (≈ 230 mM).
`N[C@@H](Cc1c[nH]c2ccccc12)C(=O)O` [L-tryptophan]: the “Solubility (20° C.)” value is on record as 10.6 g/L (≈ 51.9 mM) and the “Solubility (40° C.)” value was 14 g/L (≈ 68.6 mM).
As to `CC(C)[C@H](N)C(=O)O` [L-valine], the “Solubility (20° C.)” value is 57.5 g/L (≈ 491 mM) and the “Solubility (40° C.)” value is given as 65 g/L (≈ 555 mM).
Take `Nc1ncnc2c1ncn2[C@@H]1O[C@H](CO)[C@@H](O)[C@H]1O` [adenosine]: in data set [1], the “Solubility (20° C.)” value is 3.0 g/L (≈ 11.2 mM) and the “Solubility (40° C.)” value was 8.3 g/L (≈ 31.1 mM).
With `Nc1nc2c(ncn2[C@@H]2O[C@H](CO)[C@@H](O)[C@H]2O)c(=O)[nH]1` [guanosine], in data set [1], the “Solubility (20° C.)” value is listed as 0.42 g/L (≈ 1.48 mM) and the “Solubility (40° C.)” value was 1.05 g/L (≈ 3.71 mM).
As to `Nc1nc2c(ncn2[C@@H]2O[C@H](COP(=O)(O)O)[C@@H](O)[C@H]2O)c(=O)[nH]1` [guanylic acid, guanosine-5′-monophosphate], in data set [1], the “Solubility (20° C.)” value is on record as 206 g/L (≈ 567 mM) and the “Solubility (40° C.)” value is listed as 260 g/L (≈ 716 mM).
In the case of `OC[C@H]1O[C@@H](n2cnc3c(O)ncnc32)[C@H](O)[C@@H]1O` [inosine], in data set [1], the “Solubility (20° C.)” value was 44.4 g/L (≈ 166 mM) and the “Solubility (40° C.)” value is recorded as 83.4 g/L (≈ 311 mM).
